Paper PMC6712885, “Improved homology modeling of the human & rat EP4 prostanoid receptors” (BMC Molecular and Cell Biology, 2019)
Where “and” joins values, the source holds several entries; their conditions need not be identical. Equal values may be shown once. Read-outs that look alike come from different tables or passages of the source.

How the values were obtained:
[1] = target: T1, hEP4 receptor (Homo sapiens, UniProt P35408); parameters: expressed in transfected cells; host or cells: HEK293T/17; conditions: reported within cited reference; cited from earlier work
[2] = target: T2, rEP4 receptor (Rattus norvegicus, UniProt P43114); assay: Radioligand ([H^3]-PGE2) competition binding, rEP4 membranes of HEK293 cells
T2 construct: expressed in transfected cells; host or cells: HEK293
Method: (§1) Radioligand binding experiments were carried out versus the hEP4 and rEP4 receptors. […] We also implemented the rEP4 receptor binding studies. Equilibrium competition binding assays were conducted to determine the inhibition constants (Ki) for ligand interactions with EP4 receptors sourced from membranes (160,000×g) of HEK293 cells overexpressing recombinant hEP4 or rEP4 receptors. […] Assays were performed in 10 mM 2-(N-morpholino) ethanesulphonic acid (MES) buffer containing 1 mM EDTA and 10 mM MnCl2, pH 6.0, during 120 min at room temperature. Ki was calculated using the Cheng Prusoff equation where Ki = IC50/(1 […] L/Kd).

[3] = target: T3, Rat EP4 Receptor (Rattus norvegicus, UniProt P43114); assay: EP4 receptor functional activation, cAMP ELISA in transfected HEK293T/17 cells; format: cell-based
T3 construct: expressed in transfected cells; host or cells: HEK293T/17
Method: (§2) Human and rat EP4 receptors were expressed in HEK293T/17 cells separately by reverse transfection on 96-well plates with optimized amounts of cDNA expression constructs immobilized on the surface. Activation of EP4 receptor in this cell line was measured as an increase in cAMP levels using an ELISA kit (Cayman Chemical, Ann Arbor MI). In short, the transfection plates were seeded with 50,000–80,000 cells/well in reduced serum medium containing 0.5% FBS and incubated overnight at 37 °C with 5% CO2. Before stimulation with test compounds, media was aspirated from the wells and replaced with reduced serum media containing 0.5 mM 3-isobutyl 1-methylxanthine (IBMX). Compound dilution series were prepared in the same IBMX containing media at 2X final concentration and applied to the wells in equal volume. Stimulation media were aspirated from the plates after 30 min incubation with test compounds, and the plates with cells were placed on dry ice and then put into − 80 °C freezer for > 2 h. Cell lysates were prepared on thawed plates by adding 200 μl/well ice-cold ELISA buffer with 0.05% Tween-20 followed by titration. The cell lysates were then transferred to a polypropylene plate and clarified by centrifugation at 1000×g for 15 min at 4 °C. Supernatant was transferred into a pre-coated mouse Anti-Rabbit IgG ELISA plate together with serial dilutions of cAMP for a standard curve in triplicate. cAMP-acetylcholinesterase conjugate (cAMP tracer) was added, followed by cAMP EIA antiserum. Plates were incubated overnight with shaking. After washing 5 times in washing buffer, Ellman’s reagent was added to the well and shake for 90 min under cover before measuring absorbance at 405 nm on a plate reader.

[4] = target: T1, hEP4 receptor; assay: cell-based; format: cell-based; parameters: expressed in transfected cells; host or cells: HEK293T/17
Method: as §2

[5] = target: T1, hEP4 receptor; assay: Radioligand ([H^3]-PGE2) competition binding, hEP4 membranes of HEK293 cells; parameters: expressed in transfected cells; host or cells: HEK293; conditions: Human EP4 Receptor; displacement of 0.5 nM [H^3]-PGE2, Cheng Prusoff
Method: as §1

[6] = target: T1, hEP4 receptor; parameters: expressed in transfected cells; host or cells: HEK293T/17; conditions: reported within cited reference; cited from earlier work; remark: listed apart in the source
[7] = target: T3, Rat EP4 Receptor; parameters: method as in PMID 29636218; conditions: reported within cited reference; cited from earlier work
[8] = Rat EP4 Receptor, displacement of 0.5 nM [H^3]-PGE2, Cheng Prusoff, read-out: Ki
[9] = Human EP4 Receptor, cAMP response assay, value ± spread (n), read-out: EC50

T2 sequence (P43114 whole entry): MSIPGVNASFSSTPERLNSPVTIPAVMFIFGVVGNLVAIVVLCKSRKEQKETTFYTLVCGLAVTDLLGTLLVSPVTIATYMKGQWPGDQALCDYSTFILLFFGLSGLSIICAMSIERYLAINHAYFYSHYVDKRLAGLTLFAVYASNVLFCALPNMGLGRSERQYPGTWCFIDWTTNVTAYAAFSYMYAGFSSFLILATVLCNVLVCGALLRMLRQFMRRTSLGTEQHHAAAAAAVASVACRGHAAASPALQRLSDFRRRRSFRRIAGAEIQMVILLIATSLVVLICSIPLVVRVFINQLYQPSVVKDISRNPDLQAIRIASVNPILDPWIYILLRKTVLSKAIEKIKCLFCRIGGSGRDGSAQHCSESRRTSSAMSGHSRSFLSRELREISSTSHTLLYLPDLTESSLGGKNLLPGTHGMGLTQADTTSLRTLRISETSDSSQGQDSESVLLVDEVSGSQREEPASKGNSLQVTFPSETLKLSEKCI
T3 sequence (P43114 whole entry): as above
T1 sequence (P35408 whole entry): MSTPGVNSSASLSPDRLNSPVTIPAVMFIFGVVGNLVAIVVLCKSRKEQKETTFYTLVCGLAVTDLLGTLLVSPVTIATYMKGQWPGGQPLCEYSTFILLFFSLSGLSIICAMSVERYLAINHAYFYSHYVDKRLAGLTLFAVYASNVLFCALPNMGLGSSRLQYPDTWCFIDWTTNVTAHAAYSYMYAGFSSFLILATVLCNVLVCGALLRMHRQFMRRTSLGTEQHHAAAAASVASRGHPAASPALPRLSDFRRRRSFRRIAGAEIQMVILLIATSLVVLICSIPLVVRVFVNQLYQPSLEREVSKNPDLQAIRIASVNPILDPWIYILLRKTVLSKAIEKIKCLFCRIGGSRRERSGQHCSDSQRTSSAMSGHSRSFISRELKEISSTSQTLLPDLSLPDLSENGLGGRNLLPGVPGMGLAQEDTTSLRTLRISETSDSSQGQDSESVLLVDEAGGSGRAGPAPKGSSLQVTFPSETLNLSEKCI

| Structure (SMILES) | Ki [2, 8] [nM] | EC50 [3] [nM] | EC50 [4, 9] | Ki [5] [nM] | further results |
| --- | --- | --- | --- | --- | --- |
| CCCCCCOc1c2c(c(OCCCCCC)c3ccccc13)C(=O)N(c1ccc(CC(=O)O)cc1)C2 [CCL17464,19] | – | – | – | – | Ki [1]: > 6310 nM |
| Cc1cc(Cl)ccc1-c1ccc([C@H](O)/C=C/[C@H]2CCC(=O)N2CCCCCCC(=O)O)cc1 [CAY10684] | 0.057 | 0.16 ± 0.06 | 0.18 ± 0.1 nM | 0.061 | – |
| COCc1cccc(C[C@H](O)/C=C/[C@H]2[C@H](O)CC(=O)[C@@H]2CCSCCCC(=O)O)c1 [Rivenprost (free Acid)] | 0.35 | 1.16 ± 0.29 | 0.142 nM and 0.14 nM | 0.37 | – |
| CCCCC(C)(O)C/C=C/[C@H]1[C@H](O)CC(=O)[C@@H]1CCCCCCC(=O)OC (mixture of isomers) [Misoprostol] | – | – | – | – | Ki [6]: 4340 nM; Ki [7]: 26300 nM |
| CCCCC[C@H](O)/C=C/[C@H]1CCC(=O)[C@@H]1CCCCCCC(=O)O [11-deoxy-PGE1] | 0.21 | 1.13 ± 0.15 | 0.79 ± 0.19 nM | 0.13 | – |
| CCOc1c2c(c(OCC)c3ccccc13)C(=O)N(c1ccc(CC(=O)O)cc1)C2 [CCL17464,2] | – | – | – | – | Ki [1]: 19.9 nM |
| CCCCC[C@H](O)/C=C/[C@H]1[C@H](O)CC(=O)[C@@H]1CCCCCCC(=O)O [PGE1, Prostaglandin E1] | – | – | – | 0.13 | EC50 [4]: 0.42 ± 0.72 nM |
| CCCCC[C@H](O)/C=C/[C@H]1CCC(=O)[C@@H]1C/C=C\CCCC(=O)O [11-deoxy-PGE2] | 0.42 | 1.32 ± 0.24 | 0.66 ± 0.11 nM | 0.23 | – |
| CCCCC[C@H](O)/C=C/[C@H]1CCC(=O)N1CCCCCCC(=O)O [8-aza-11-deoxy-PGE1] | – | 2.64 ± 0.62 | 1.77 ± 0.32 nM | 1.7 | – |
| CS(=O)(=O)NC(=O)CCC/C=C\C[C@H]1C(=O)C[C@@H](O)[C@@H]1/C=C/[C@@H](O)COc1ccccc1 [Sulprostone] | – | – | – | – | Ki [6]: 3310 nM; Ki [7]: 43600 nM |
| CCCCC[C@H](O)/C=C/[C@H]1[C@H](O)CC(=O)[C@@H]1C/C=C\CCCC(=O)O [PGE2, prostaglandin E2] | – | – | – | – | Ki [2]: 0.19 nM |
